These results are taken from patent EP2567943A1, “TITANIUM COAGULANT FOR NATURAL AND WASTE WATER PURIFICATION AND DISINFECTION AND METHOD FOR UTILIZING THEREOF” (Sittec Closed Joint Stock Company (Sittec CJSC), priority 2007, dated 2009).

Data set [1] is described as follows: acute toxicity (hazard indices). The following applies: in vivo. As to the method:
(§1) Testing the safe method for producing and utilizing the claimed titanium coagulant (absence of mutagenous impact; sensibilizing, allergenic, carcinogenic, gonadotoxic and other action) was carried out on the base of the State organ SRI of human ecology and environmental hygiene named after A.N. Sysin of the Russian Academy of Medical Sciences (RAMS).
(§2) Particularly, derivatives of aluminium oxychloride (AOC) and aluminium sulfate are monitored in accordance with the aluminium content in potable water. While testing the new coagulant, the same principles for evaluating the titanium coagulant safety as the safety evaluation of coagulants based on aluminium were applied. […]

A short description of data set [2]: hygienic hazard indices in water. The procedure:
as §1, §2
One can see from the Table 22 that the method for producing the titanium coagulant and the coagulant generally are safe by the main hygienic indices, and control of the titanium coagulant content in purified water should be performed in accordance with the titanium and aluminium content therein pursuant to the MAC of 0.1 mg/L and 0.2 mg/L, respectively, established for them.

By LD50 is commonly meant the dose at which mortality reaches 50%. Higher therefore signals lower toxicity. For `[Al]` [Aluminium], the LD50 in data set [1] was 180 to 1360 mg/kg. Besides, the L.conc. in data set [2] (muddiness) is on record as 0.2 (muddiness) mg/L.

Regarding Titanium, the LD50 in data set [1] was determined as 150 mg/kg. In addition, the Min.possi bl in data set [2] is 1.0 mg/kg. The L.conc. in data set [2] (retardation) is listed as 0.1 (retardation) mg/L; in data set [2] (taint), 4.5 (taint) mg/L.

In the case of “aluminium oxychloride [AOC, reference compound]”, in data set [2], the MAC was determined as 1.5 mg/L and the Min.possi bl is reported as 1.0 mg/kg. Besides, the L.conc. in data set [2] (muddiness) is recorded as 1.45 (muddiness) mg/L. Also, in data set [2] (retardation), the L.conc. is 1.0 (retardation) mg/L.
